PubChem BioAssay (NCI)
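Cultured in 96-well plates, cells were exposed to test compound for 48 hours across five concentrations. GI50 marks 50% less growth. TGI: concentration producing complete growth inhibition.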

Columns and labels:
Assay in all cases: inhibition of tumour cell growth, NCI panel, 48 h
KM20L2 colon = test system: KM20L2 colon
LXFL 529 NSCLC = test system: LXFL 529 NSCLC
DMS 273 small cell lung = test system: DMS 273 small cell lung
XF 498 CNS = test system: XF 498 CNS
HOP-18 NSCLC = test system: HOP-18 NSCLC
DU-145 prostate = test system: DU-145 prostate
MDA-MB-231 breast = test system: MDA-MB-231 breast
T-47D breast = test system: T-47D breast
PC-3 prostate = test system: PC-3 prostate
MCF7 breast = test system: MCF7 breast

| Compound | TGI (KM20L2 colon) | TGI (LXFL 529 NSCLC) | TGI (DMS 273 small cell lung) | TGI (XF 498 CNS) | TGI (HOP-18 NSCLC) | further results |
| --- | --- | --- | --- | --- | --- | --- |
| CCOC(OC1=C(C#N)CCC1)C(CC)[Se]c1ccccc1 (stereo not drawn) | 64.7 µM | 48.5 µM | 24.2 µM | 49.7 µM | 69.5 µM |  |
| c1cncc(C2c3[nH]c4ccccc4c3CCN2CCN2CCCCC2)c1 (stereo not drawn) | > 100 µM | > 100 µM | > 100 µM | > 100 µM | > 100 µM |  |
| CC[C@@]1(OC(=O)CCC(=O)O)C(=O)OCc2c1cc1n(c2=O)Cc2cc3ccccc3nc2-1 | 33.8 µM | > 45.4 µM | 0.676 µM | 5.38 µM | > 100 µM | TGI (DU-145 prostate): 1.51 µM; TGI (MDA-MB-231 breast): > 27.6 µM; TGI (T-47D breast): 2.62 µM; TGI (PC-3 prostate): > 100 µM |
| CCCN(CCC)c1c([N+](=O)[O-])cc(S(N)(=O)=O)cc1[N+](=O)[O-] | 37.4 µM | 30 µM | 33.8 µM | 30.2 µM | 36.2 µM |  |
| CC(O)C(NC(=O)C(CS)NC(=O)C(CO)NC(=O)C(CCCCN)NC(=O)C(Cc1c[nH]c2ccccc12)NC(=O)C(Cc1ccc(O)cc1)NC(=O)C(CS)NC(=O)C(N)Cc1ccccc1)C(N)=O (stereo not drawn) | 55.8 µM |  | 49.4 µM | 53.8 µM | 46.6 µM | TGI (DU-145 prostate): > 25 µM; TGI (MDA-MB-231 breast): > 25 µM; TGI (T-47D breast): > 25 µM; TGI (PC-3 prostate): > 25 µM; TGI (MCF7 breast): > 25 µM |
| CC(=O)O/C(C)=C\C(=O)O/N=C(\N)c1ccc(C)cc1 | > 100 µM | 59.9 µM | > 100 µM | > 100 µM | 98.6 µM |  |
| CC1=C(N2CC2)C(=O)c2nc3n(c2C1=O)CCC3O (stereo not drawn) | 5.95 µM | 2.44 µM | 1.68 µM | 29.8 µM | > 100 µM | TGI (DU-145 prostate): 0.0717 µM; TGI (T-47D breast): 2.04 µM |
| Cc1ccc(-n2c(C)nc3c2C(=O)c2ccccc2C3=O)cc1 | > 100 µM | > 100 µM | > 100 µM | > 100 µM |  |  |
| CC1=C2N3C[C@@H](n4c(=O)n(C)c(=O)n43)C23CCC1n1c(=O)n(C)c(=O)n13 | > 100 µM | > 100 µM | > 100 µM | > 100 µM | > 100 µM |  |
| COc1ccc(/C=[N+](\[O-])[C@H](COCc2ccccc2)c2ccccc2)cc1 | > 100 µM | > 100 µM | > 100 µM | > 100 µM | > 100 µM |  |
| CCCCS(=N)(=O)CC[C@H](N)C(=O)O (stereo partly drawn) | > 5000 µM |  | > 5000 µM | 604 µM | > 5000 µM | GI50 (DU-145 prostate): > 10 mM; TGI (DU-145 prostate): > 10000 µM; GI50 (MDA-MB-231 breast): > 10 mM; TGI (MDA-MB-231 breast): > 10000 µM; GI50 (T-47D breast): > 10 mM; TGI (T-47D breast): > 10000 µM; GI50 (PC-3 prostate): > 10 mM; TGI (PC-3 prostate): > 10000 µM; GI50 (MCF7 breast): > 10 mM; TGI (MCF7 breast): > 10000 µM |
| Cc1ccc(C)c(NC(=O)/C(=N\NC(N)=S)C(C#N)c2ccccc2)c1 (stereo not drawn) | > 100 µM | > 100 µM | > 100 µM | > 100 µM | > 100 µM |  |
| CC(SC1=CC(=O)c2c(O)ccc(O)c2C1=O)C(=O)O (stereo not drawn) | > 100 µM | > 51.6 µM | > 100 µM | > 82.2 µM | > 90.3 µM |  |
| O=C(O)c1[nH]c(C(=O)O)c(CC(F)(F)C(F)(F)C(F)(F)F)c1CC(F)(F)C(F)(F)C(F)(F)F | > 100 µM | > 100 µM | > 100 µM | > 100 µM | > 100 µM |  |
| C=CCN(N=O)C(=O)N(CCC)CCCC(NC(C)=O)C(=O)NCc1ccccc1 (stereo not drawn) | > 100 µM | > 100 µM | > 100 µM | > 100 µM | > 100 µM |  |
| Cc1cc2occ(C)c(=O)c2c2c1OC(C)(C)S2 | > 100 µM | > 100 µM | > 100 µM | > 100 µM | > 100 µM |  |
| CCOC(=O)/C=C(/CN1C(=O)c2ccccc2C1=O)c1ccccc1 | > 100 µM | > 100 µM | > 100 µM | > 100 µM | > 100 µM |  |
| CCc1cccc(C)c1NC(=O)CC1Sc2ccccc2NC1=O (stereo not drawn) | > 100 µM | > 100 µM | > 100 µM | > 100 µM | > 100 µM |  |
| c1ccc(COc2ccc3[nH]c4c(ncc5[nH]c6ccccc6c54)c3c2)cc1 | 20.4 µM | 29.5 µM | 30.4 µM | 26.6 µM | 26.1 µM |  |
| CCCCCCCCCCCC(=O)C1=C(O)C(O)CCC1=O (stereo not drawn) | 24.9 µM | 53.9 µM | 21.3 µM | 26.4 µM | 86.5 µM |  |
| CCCN(CCCCC(NC(C)=O)C(=O)NCc1ccccc1)C(=O)NC (stereo not drawn) | > 100 µM | > 100 µM | > 100 µM | > 100 µM |  |  |
| Cc1c2ncccc2c(C)c2c1[nH]c1ccccc12 | 22.6 µM | 24.8 µM | 19 µM | 25.3 µM | 27.3 µM |  |
| [Cl][Sn]([c]1ccccc1)[c]1ccccc1 | 30.4 µM | 3.13 µM | 34 µM | 5.22 µM | 9.24 µM | GI50 (KM20L2 colon): 14.9 µM; GI50 (LXFL 529 NSCLC): 1400 nM; GI50 (DMS 273 small cell lung): 10 µM; GI50 (XF 498 CNS): 2680 nM; GI50 (HOP-18 NSCLC): 3.27 µM |
| CN(C)CCNC(=O)c1cc([N+](=O)[O-])cc2ccc(-c3ccccc3)nc12 | 31.2 µM | 58 µM | 31.7 µM | 21.7 µM | 26.3 µM | TGI (MCF7 breast): > 100 µM |
| Cn1cc(NC(=O)c2cc(NC(=O)CCCCCC(=O)Nc3cc(C(=O)Nc4cc(C(=O)NCCC(=N)N)n(C)c4)n(C)c3)cn2C)cc1C(=O)NCCC(=N)N | > 100 µM | > 100 µM | > 100 µM | > 100 µM | > 100 µM |  |
| COc1ccc(N=Cc2ccc(N(CCC#N)CCC#N)cc2)cc1 | > 100 µM | > 84.5 µM | > 100 µM | > 100 µM | > 100 µM | TGI (DU-145 prostate): > 100 µM; TGI (MDA-MB-231 breast): > 100 µM; TGI (T-47D breast): > 100 µM; TGI (PC-3 prostate): > 100 µM; TGI (MCF7 breast): > 100 µM |
